Laboratory results from US8143243B2, “Compounds for the treatment of hepatitis C” (Bristol-Myers Squibb Company, priority 2007, dated 2012).
Like-named read-outs stand apart in the source and are kept apart here.

Legend:
HCV NS5B = target: T1, HCV NS5B (Hepatitis C virus genotype 1b, UniProt Q9WMX2); experiment: HCV NS5B RdRp enzyme assay (standard / modified); assay type: biochemical
T1 construct: The protein was expressed with an 18 amino acid C-terminal truncation to enhance the solubility; made in house; host or cells: E. coli BL21 (DE3)
How it was run: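 NS5B genotype 1b, 18-aa C-terminal truncation, E. coli-expressed; polyA template with biotinylated oligo-dT12 primer, 3H-UTP 0.29 μM, 30° C, SPA read-out in 20 mM Hepes pH 7.5, 2% DMSO. Standard: 28 nM enzyme, 6 nM template, 180 nM primer, 60 min; modified: 14 nM enzyme, 0.2 nM template, 20 nM bead-precaptured primer, 4 h. IC50 from seven concentrations.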

HCV replicon cells = experiment: HCV replicon FRET / luciferase assay; assay type: cell-based; details: Hepatitis C virus
How it was run: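 Replicon cells + titrated cpds, 37 °C CO2. Alamar blue for cytotoxicity, PBS rinse, then lysis reagent w/ 20 μM FRET peptide (EDANS/DABCYL), 150 mM NaCl; kinetic read ex340/em490, 20 cycles. Alt: Dual-Glo luciferase. EC50 = 50% drop in FRET/luciferase signal after background subtraction.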

[1] = HCV RdRp genotype 1b enzyme, read-out: IC50
[2] = HCV replicon cells, FRET or luciferase readout, read-out: EC50

T1 sequence (Q9WMX2 2420-2992): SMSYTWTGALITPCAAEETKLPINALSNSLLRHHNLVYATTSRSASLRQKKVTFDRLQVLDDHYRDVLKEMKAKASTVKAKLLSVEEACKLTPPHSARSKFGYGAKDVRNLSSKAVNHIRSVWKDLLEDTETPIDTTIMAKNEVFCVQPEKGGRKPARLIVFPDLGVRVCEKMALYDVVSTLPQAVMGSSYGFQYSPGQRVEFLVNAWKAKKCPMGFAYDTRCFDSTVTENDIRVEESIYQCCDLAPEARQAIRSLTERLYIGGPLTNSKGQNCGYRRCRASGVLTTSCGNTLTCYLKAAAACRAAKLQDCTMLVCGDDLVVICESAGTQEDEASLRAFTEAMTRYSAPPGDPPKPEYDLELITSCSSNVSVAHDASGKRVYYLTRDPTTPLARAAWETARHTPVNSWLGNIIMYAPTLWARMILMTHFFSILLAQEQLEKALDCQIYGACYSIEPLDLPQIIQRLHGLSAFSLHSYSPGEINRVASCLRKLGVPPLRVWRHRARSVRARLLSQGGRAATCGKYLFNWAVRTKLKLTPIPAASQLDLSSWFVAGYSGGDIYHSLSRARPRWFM

Question: How did the IC50 (HCV NS5B) turn out when `COc1ccc2c(c1)C=C(c1c(C(=O)N3[C@@H]4CC[C@H]3C[C@@](C)(O)C4)cnn1C(C)C)Cn1c-2c(C2CCCCC2)c2ccc(C(=O)NS(=O)(=O)C(C)C)cc21` was run?
Answer: 1 to 500 nM

Question: What about the EC50 (HCV replicon cells) of the same compound?
Answer: 1 to 500 nM

Question: How did the IC50 (HCV NS5B; [1]) turn out when `COc1ccc2c(c1)C=C(c1c(C(=O)N3C[C@@H](C)O[C@@H](C)C3)cnn1C)Cn1c-2c(C2CCCCC2)c2ccc(C(=O)NS(=O)(=O)N3CCOCC3)cc21` was run?
Answer: 1 to 500 nM

Question: And the EC50 (HCV replicon cells; [2])?
Answer: 1 to 500 nM

Question: How did the IC50 (HCV NS5B; [1]) turn out when `CCC(C)S(=O)(=O)NC(=O)c1ccc2c(C3CCCCC3)c3n(c2c1)CC(c1c(C(=O)N2CCCC(N(C)C)C2)cnn1C)=Cc1cc(OC)ccc1-3` (stereo not drawn) was run?
Answer: 1 to 500 nM

Question: And the EC50 (HCV replicon cells; [2])?
Answer: 1 to 500 nM

Question: How did the IC50 (HCV NS5B; [1]) turn out when `CCOC(=O)c1cc[nH]c1C1=Cc2cc(OC)ccc2-c2c(C3CCCCC3)c3ccc(C(=O)NS(=O)(=O)C(C)C)cc3n2C1` was run?
Answer: 1 to 500 nM

Question: What about the EC50 (HCV replicon cells; [2]) of the same compound?
Answer: 1 to 500 nM

Question: What does the source list for `CCn1ncc(C(=O)N2CCN(C)CC2)c1C1=Cc2cc(OC)ccc2-c2c(C3CCCCC3)c3ccc(C(=O)NS(=O)(=O)N(C)C)cc3n2C1`?
Answer: IC50 (HCV NS5B; [1]): 1 to 500 nM; EC50 (HCV replicon cells; [2]): 1 to 500 nM

Question: Which results are given for `COc1ccc2c(c1)C=C(c1c(C(=O)N3C4CCC3CN(C)C4)cnn1C)Cn1c-2c(C2CCCCC2)c2ccc(C(=O)NS(=O)(=O)C3CCCC3)cc21`?
Answer: IC50 (HCV NS5B): 1 to 500 nM; EC50 (HCV replicon cells): 1 to 500 nM

Question: For `COc1ccc2c(c1)C=C(c1c(C(=O)N3C4CC3CN(C)C4)cnn1C(C)C)Cn1c-2c(C2CCCCC2)c2ccc(C(=O)NS(=O)(=O)C(C)C)cc21`, which IC50 (HCV NS5B; [1]) is on record?
Answer: 1 to 500 nM

Question: What about the EC50 (HCV replicon cells; [2]) of the same compound?
Answer: 1 to 500 nM

Question: `CCC(C)S(=O)(=O)NC(=O)c1ccc2c(C3CCCCC3)c3n(c2c1)CC(c1c(C(=O)N2CC(C)N(C)C(C)C2)cnn1C)=Cc1cc(OC)ccc1-3` (stereo not drawn) was tested. Which IC50 (HCV NS5B; [1]) did it give?
Answer: 1 to 500 nM

Question: And the EC50 (HCV replicon cells; [2])?
Answer: 1 to 500 nM

Question: Which results are given for `COc1ccc2c(c1)C=C(c1c(C(=O)N3CC(C)OC(C)C3)cnn1C(C)C)Cn1c-2c(C2CCCCC2)c2ccc(C(=O)NS(=O)(=O)C(C)C)cc21` (stereo not drawn)?
Answer: IC50 (HCV NS5B; [1]): 1 to 500 nM; EC50 (HCV replicon cells; [2]): 1 to 500 nM

Question: Which results are given for `COc1ccc2c(c1)C=C(c1c(C(=O)N3CCOCC3)cnn1C(C)C)Cn1c-2c(C2CCCCC2)c2ccc(C(=O)NS(=O)(=O)C(C)C)cc21`?
Answer: IC50 (HCV NS5B; [1]): 1 to 500 nM; EC50 (HCV replicon cells; [2]): 1 to 500 nM

Question: With `COc1ccc2c(c1)C=C(c1c(C(=O)N3C4CCC3CN(C)C4)ccn1C(C)C)Cn1c-2c(C2CCCCC2)c2ccc(C(=O)NS(=O)(=O)C(C)C)cc21` as the compound, how does the IC50 (HCV NS5B) read?
Answer: 1 to 500 nM

Question: What about the EC50 (HCV replicon cells) of the same compound?
Answer: 1 to 500 nM

Question: How did the IC50 (HCV NS5B) turn out when `COc1ccc2c(c1)C=C(c1c(C(=O)N3C4CCC3CN(C)C4)cnn1C(C)C)Cn1c-2c(C2CCCCC2)c2ccc(C(=O)NS(=O)(=O)C(C)C)cc21` was run?
Answer: 1 to 500 nM

Question: And the EC50 (HCV replicon cells)?
Answer: 1 to 500 nM

Question: For `COc1ccc2c(c1)C=C(c1occc1C(=O)N1C3CCC1CN(C)C3)Cn1c-2c(C2CCCCC2)c2ccc(C(=O)NS(=O)(=O)C(C)C)cc21`, which IC50 (HCV NS5B) is on record?
Answer: 1 to 500 nM

Question: And the EC50 (HCV replicon cells)?
Answer: 1 to 500 nM

Question: `CCn1nc(C)c(C(=O)N2C[C@@H](C)O[C@@H](C)C2)c1C1=Cc2cc(OC)ccc2-c2c(C3CCCCC3)c3ccc(C(=O)NS(=O)(=O)C(C)C)cc3n2C1` [drawing 580] was tested. Which IC50 (HCV NS5B; [1]) did it give?
Answer: 1 to 500 nM

Question: And the EC50 (HCV replicon cells; [2])?
Answer: 1 to 500 nM

Question: With `COc1ccc2c(c1)C=C(c1ocnc1C(=O)N1CCOCC1)Cn1c-2c(C2CCCCC2)c2ccc(C(=O)OC(C)(C)C)cc21` as the compound, how does the IC50 (HCV NS5B; [1]) read?
Answer: > 40 nM

Question: What about the EC50 (HCV replicon cells; [2]) of the same compound?
Answer: > 40 nM

Question: Which IC50 (HCV NS5B) does the source give for `COc1ccc2c(c1)C=C(c1c(C(=O)N3C4CCC3CN(C)C4)cnn1C)Cn1c-2c(C2CCCCC2)c2ccc(C(=O)O)cc21` here?
Answer: > 500 nM

Question: And the EC50 (HCV replicon cells)?
Answer: 1 to 500 nM

Question: Which IC50 (HCV NS5B; [1]) does the source give for `COc1ccc2c(c1)C=C(c1c(C(=O)N3CC(C)N(C)C(C)C3)cnn1C(C)C)Cn1c-2c(C2CCCCC2)c2ccc(C(=O)NS(=O)(=O)C(C)C)cc21` (stereo not drawn) here?
Answer: 1 to 500 nM

Question: And the EC50 (HCV replicon cells; [2])?
Answer: 1 to 500 nM

Question: For `COc1ccc2c(c1)C=C(c1c(C(=O)N3CCN(C)CC3)cnn1C)Cn1c-2c(C2CCCCC2)c2ccc(C(=O)NS(=O)(=O)N3CCOCC3)cc21`, which IC50 (HCV NS5B; [1]) is on record?
Answer: 1 to 500 nM

Question: What about the EC50 (HCV replicon cells; [2]) of the same compound?
Answer: 1 to 500 nM

Question: With `CCN1C[C@@H]2CC1CN2C(=O)c1cnn(C(C)C)c1C1=Cc2cc(OC)ccc2-c2c(C3CCCCC3)c3ccc(C(=O)NS(=O)(=O)C(C)C)cc3n2C1` as the compound, how does the IC50 (HCV NS5B; [1]) read?
Answer: 1 to 500 nM

Question: And the EC50 (HCV replicon cells; [2])?
Answer: 1 to 500 nM

Question: With `COc1ccc2c(c1)C=C(c1c(C(=O)N3C[C@@H]4C[C@H]3CO4)c(C)nn1C(C)C)Cn1c-2c(C2CCCCC2)c2ccc(C(=O)NS(=O)(=O)C(C)C)cc21` as the compound, how does the IC50 (HCV NS5B; [1]) read?
Answer: 1 to 500 nM

Question: And the EC50 (HCV replicon cells; [2])?
Answer: 1 to 500 nM

Question: For `COc1ccc2c(c1)C=C(c1c(C(=O)N3[C@@H]4CC[C@H]3C[C@@](C)(O)C4)cnn1C(C)C)Cn1c-2c(C2CCCCC2)c2ccc(C(=O)NS(=O)(=O)CC(C)C)cc21`, which IC50 (HCV NS5B) is on record?
Answer: 1 to 500 nM

Question: And the EC50 (HCV replicon cells)?
Answer: 1 to 500 nM

Question: `COc1ccc2c(c1)C=C(c1c(C(=O)N3CCOCC3)cnn1C)Cn1c-2c(C2CCCCC2)c2ccc(C(=O)NS(=O)(=O)N(C)C)cc21` was tested. Which IC50 (HCV NS5B; [1]) did it give?
Answer: 1 to 500 nM

Question: What about the EC50 (HCV replicon cells; [2]) of the same compound?
Answer: 1 to 500 nM

Question: Which results are given for `COc1ccc2c(c1)C=C(c1c(C(=O)N3CCC(N4CCCC4)CC3)cnn1C)Cn1c-2c(C2CCCCC2)c2ccc(C(=O)NS(=O)(=O)N3CCOCC3)cc21`?
Answer: IC50 (HCV NS5B; [1]): 1 to 500 nM; EC50 (HCV replicon cells; [2]): > 500 nM

Question: For `COc1ccc2c(c1)C=C(c1c(C(=O)N3CC4CCC(C3)N4C)cnn1C)Cn1c-2c(C2CCCCC2)c2ccc(C(=O)NS(=O)(=O)C(C)C)cc21`, which IC50 (HCV NS5B) is on record?
Answer: 1 to 500 nM

Question: And the EC50 (HCV replicon cells)?
Answer: 1 to 500 nM
